Results from PMC8356907 (Current analytical chemistry, 2021).
Each block holds one molecule with its values, some of them ahead of it. Square brackets hold non-standard residues; d marks the D form.

Assays:
[1] = target: human integrin αvβ3 purified protein (Homo sapiens, UniProt P05106+P06756); assay: Solid-phase RGD receptor-binding assay
[2] = target: T1, recombinant human caspase 3 (Homo sapiens, UniProt P42574); conditions: cited from earlier work; for kcat: standard fluorogenic substrates; for Km: standard substrates
T1 sequence (P42574 29-175 limits assumed): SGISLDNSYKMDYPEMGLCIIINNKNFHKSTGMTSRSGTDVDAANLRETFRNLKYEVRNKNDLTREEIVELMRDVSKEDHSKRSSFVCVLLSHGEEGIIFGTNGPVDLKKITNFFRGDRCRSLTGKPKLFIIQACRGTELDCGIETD
T1 sequence (P42574 176-277 limits assumed): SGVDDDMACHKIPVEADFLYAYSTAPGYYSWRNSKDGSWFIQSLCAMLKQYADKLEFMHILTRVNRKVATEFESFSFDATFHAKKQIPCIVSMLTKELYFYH

A549 cells = assay: Live cell NIR fluorescence microscopy; type: cell-based, human; conditions: 100 μM inhibitor, paclitaxel-treated A549 cells, 4 h
[3] = target: T2, human integrin αvβ3 purified protein (human), P06756; assay: radioligand binding; conditions: remark: other sources report otherwise
T2 chain 1: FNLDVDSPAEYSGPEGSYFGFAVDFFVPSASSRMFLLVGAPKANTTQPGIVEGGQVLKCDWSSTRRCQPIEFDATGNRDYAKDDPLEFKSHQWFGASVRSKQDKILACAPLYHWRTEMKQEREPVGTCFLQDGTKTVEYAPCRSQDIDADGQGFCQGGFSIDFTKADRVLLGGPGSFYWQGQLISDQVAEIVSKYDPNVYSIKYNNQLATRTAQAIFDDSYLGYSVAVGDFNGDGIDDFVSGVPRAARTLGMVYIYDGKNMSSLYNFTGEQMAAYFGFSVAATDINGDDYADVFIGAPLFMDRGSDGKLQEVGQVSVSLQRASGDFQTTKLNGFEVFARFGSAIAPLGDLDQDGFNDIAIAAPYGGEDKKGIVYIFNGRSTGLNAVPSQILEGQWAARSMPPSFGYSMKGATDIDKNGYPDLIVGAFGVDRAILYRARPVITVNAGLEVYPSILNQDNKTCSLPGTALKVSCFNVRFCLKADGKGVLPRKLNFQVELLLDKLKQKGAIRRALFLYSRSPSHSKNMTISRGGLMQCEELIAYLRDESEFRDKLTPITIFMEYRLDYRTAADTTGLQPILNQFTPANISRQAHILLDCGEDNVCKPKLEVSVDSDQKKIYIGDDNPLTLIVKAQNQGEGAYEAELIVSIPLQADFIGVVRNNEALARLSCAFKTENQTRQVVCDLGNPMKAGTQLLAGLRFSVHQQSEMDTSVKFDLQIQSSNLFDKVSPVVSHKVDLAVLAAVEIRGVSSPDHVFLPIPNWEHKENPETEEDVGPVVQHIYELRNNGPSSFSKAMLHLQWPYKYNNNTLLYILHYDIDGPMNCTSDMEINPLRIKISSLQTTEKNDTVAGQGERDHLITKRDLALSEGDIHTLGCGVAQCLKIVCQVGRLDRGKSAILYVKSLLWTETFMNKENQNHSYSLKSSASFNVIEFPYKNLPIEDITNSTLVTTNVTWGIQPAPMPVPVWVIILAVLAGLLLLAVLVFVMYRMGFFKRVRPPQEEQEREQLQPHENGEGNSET
T2 chain 2: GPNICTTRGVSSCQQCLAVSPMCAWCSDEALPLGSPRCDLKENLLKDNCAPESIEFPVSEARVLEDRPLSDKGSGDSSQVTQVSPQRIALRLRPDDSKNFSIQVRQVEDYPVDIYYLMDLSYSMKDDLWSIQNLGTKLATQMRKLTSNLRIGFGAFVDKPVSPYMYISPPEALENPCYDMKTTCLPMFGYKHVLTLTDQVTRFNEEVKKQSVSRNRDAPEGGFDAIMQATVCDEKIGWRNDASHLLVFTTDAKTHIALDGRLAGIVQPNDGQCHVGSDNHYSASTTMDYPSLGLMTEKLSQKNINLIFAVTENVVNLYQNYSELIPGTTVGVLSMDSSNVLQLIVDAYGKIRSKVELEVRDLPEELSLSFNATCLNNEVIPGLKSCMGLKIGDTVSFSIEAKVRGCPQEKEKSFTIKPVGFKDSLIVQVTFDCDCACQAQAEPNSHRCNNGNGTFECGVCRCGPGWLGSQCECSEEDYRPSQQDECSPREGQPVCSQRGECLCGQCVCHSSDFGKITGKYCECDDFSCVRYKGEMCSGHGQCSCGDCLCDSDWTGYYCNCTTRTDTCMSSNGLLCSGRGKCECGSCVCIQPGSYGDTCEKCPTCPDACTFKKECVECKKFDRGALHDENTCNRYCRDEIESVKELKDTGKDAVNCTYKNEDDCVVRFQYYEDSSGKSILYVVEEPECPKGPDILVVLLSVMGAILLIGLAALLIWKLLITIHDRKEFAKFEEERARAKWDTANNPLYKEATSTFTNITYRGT

[4] = target: human integrin αvβ3 purified protein (human, UniProt P06756 31-1048; P05106 27-788); assay: radioligand binding

Molecule: Ac-DEVD-AMC
kcat [2]: 0.75 s⁻¹
Km [2]: 9.7 µM

Molecule: Z-Asp(Ome)-Glu(Ome)-Val-Asp(OMe)-FMK
effect of caspase-3 inhibitor on LS422 fluorescence activation (A549 cells): inability to activate the LS422 fluorescence

Molecule: Ac-DEVD-pNA
kcat [2]: 2.4 s⁻¹
Km [2]: 11 µM

Molecule: Cypate-c(RGDfK) [LS167]
Ki ([1]; read-out: Ki (nM ± s.d.), corrected Ki, modified Cheng-Prusoff equation, 125I-c(RGDyK) tracer): 1.62 ± 0.491 nM

Now from value to molecule:

decrease in the binding affinity ([1]; non-RGD peptide control): > 100 fold
Molecule: cypate-octreotate

Ki [3]: 1.62 nM
Molecule: cyclo(RGD[dF]K) (also: cypate label, position not given here) [LS167 (Cypate-c(RGDfK))]

Kd [4]: 0.4 nM
Molecule: cyclo(RGD[dY]K) (also: 125I label, site not given here) [125I-c(RGDyK)]
